Measurements published in US11795144B2, “Inhibitors of RAC1 and uses thereof for treating cancers” (INSTITUT NATIONAL DE LA SANTE ET DE LA RECHERCHE MEDICALE …, priority 2017, dated 2023).
“Also recorded” adds a separate entry of the source.

Tests used:
[1] = target: RAC1 (Homo sapiens, UniProt P63000)
[2] = system: MCF-7 cells; test: Primary focus formation assay; assay type: cell-based; settings: MCF-7, 3 weeks of treatment
Procedure: For primary focus formation assays, MCF-7 cells were plated at a density of 10^5 cells/well of a 6-well plate. Cells were allowed to reach confluency and were maintained on complete growth medium supplemented with indicated concentration of A4.1 (or compound (2)) or vehicle until focus formation occurred. Foci of transformed cells was quantitated after 21 days.
Malignant transformation of cells is typically associated with increased proliferation, loss of contact inhibition, acquisition of anchorage-independent growth potential, and the ability to form foci in culture cells. A focus formation assay was used to test whether (2) affects the clonogenic potential of breast cancer cells MCF-7. After 3 weeks of treatments, the cells's foci were fixed, stained and counted ([…]).

[3] = system: MDA-MB-468; test: Cancer cell invasion in 3D gel; assay type: cell-based; settings: 10 μM, after 48 h
Procedure: (§1) FIG. 4 relates to the inhibition of the Rac-dependent cell functions involved in cancer cells by (2). FIG. 4A: Breast cancer cell line MDA-MB-468 and primary human fibroblast from breast cancer tumors were seeded in 3D-gel containing or not (2). […] FIG. 4B: Effect of (2) on foci assay.
(§2) To confirm this hypothesis, cancer cells invasion was analyzed in 3D gel. The breast cancer cell line MDA-MB-468 or primary fibroblasts from human breast cancer were seeded in gels containing or not (2) (10 μM).

[4] = target: T1, Rac^V12 (Homo sapiens, UniProt P63000, G12V); test: Ruffle formation and membrane location of constitutive active RFP-Rac^V12 in fibroblasts; assay type: cell-based
T1 construct: expressed in transfected cells; host or cells: NIH3T3
Procedure: (§3) cDNA coding for constitutive active Rac1 (Rac^V12-RFP) were transfected in NIH3T3 with jetPEI (Polyplus transfection) according to the manufacturer's instructions. After treatments, fibroblasts were fixed with 4% paraformaldehyde in PBS, permeabilized in PBS 0.5% Triton X-100, and incubated with 130 μg/mL of FITC-conjugated phalloidin (Sigma) to visualize F-actin. After staining, images were captured by a fluorescence microscope (Nikon). The actin cytoskeleton organization was analyzed to observe Rac1-dependent ruffle formation.
Rac1 over activity is implicated in various steps of oncogenesis including initiation, progression, invasion, and metastasis. The ability of (2) to inhibit a constitutive active mutant of Rac1, Rac^V12 was evaluated. In control condition, expression of RFP-Rac^V12 in fibroblasts induces changes in actin cytoskeleton leading to ruffles formation (data not shown). This effect is prevented by (2) (10 μM).

[5] = Pharmacokinetics after intraperitoneal injection; assay type: in vivo, male C57BL6 adult mice; settings: male, C57BL6, mouse, plasma; IP route, mice
Procedure: FIG. 5 relates to the pharmacokinetics of compound (2) by analyzing kidney, brain, liver, heart, plasma samples, and lungs from male C57BL6 adult mice after intraperitonal injection. The curves of this Figure represent the concentration in μg/g over time in minutes.
(§4) To test whether compound (2) would have an acceptable therapeutic index in vivo, the pharmacokinetics of compound (2) were measured by analyzing plasma samples, brain, heart, kidney, liver and lungs from male C57BL6 adult mice after intraperitonal injection (IP) (FIG. 5). In addition, we evaluated the effect of chronic (daily during 4 weeks) IP injections of compound (2) on physiological parameters: body weight, glycemia, hepatic and renal functions (FIGS. 6 to 8).

[6] = system: MDA-MB-468 (Luciferase+) cell line; test: Metastasis in xenograft mouse tumor model; assay type: in vivo, NMRI mice; settings: 25 mg/kg/d IP during 4 weeks after exeresis of primary tumor
Procedure: FIG. 9 relates to the in vivo efficiency of compound (2) to inhibit metastasis in a xenograft mouse tumor model using MDA-MB-468 (Luciferase+) cell line in 5-week-old NMRI mice.
The in vivo efficiency of compound (2) to inhibit metastasis was evaluated in a xenograft mouse tumor model using MDA-MB-468 (Luciferase+) cell line in 5-week-old NMRI mice. When the tumor volume reached 1,000 mm^3, exeresis of the primary tumor was done to monitor predominantly metastasis initiation and progression. Compound (2) was administered everyday via intraperitoneal injection (25 mg/kg/d) during 4 weeks. Then, xenografted mice were sacrified and organs were imaged (FIGS. 9A and 9B).

[7] = system: primary fibroblasts from human breast cancer; test: Invasion in 3D gel of primary fibroblasts from breast cancer; assay type: cell-based; settings: 10 μM, after 48 h
Procedure: as §1, §2

[8] = system: fibroblast; test: Cell adhesion assay using impedance technology (xCELLigence); assay type: cell-based; settings: fibroblasts pre-treated with 10 μm
From the text: (§5) FIGS. 1 to 3 relate to the inhibition of the Rac-induced cell functions by compound (2) (or A4.1). […] Ruffles are indicated by arrows (left panel). Percentages of cells with ruffles were quantified (right panel). Results shown are representative of 3 independent experiments. […] Left panel, representative records with arrows indicating the cell location at different times. Right panel, quantification of cell speed in each experimental conditions. Results shown are representative of 2 independent experiments. […] Lower panel, quantification of cell adhesion. Results shown are representative of 3 independent experiments.
Cells (10000/well) were seeded in a 96 well plate microtiter xCELLigence assay plate (E-Plate) (ACEA Biosciences Inc.) and placed on the Real-time xCELLigence Cell Analyzer (Roche Applied Science) platform at 37° C. to measure the “cell index” every 5 min for a period of 6 hours. The cell index unit is defined as (Rn−Rb)/15. Rn is the cell electrode impedance of the well when it contains cells. Rb is the background impedance of the well with the media alone.

[9] = system: Rac; test: Rac activator-induced membrane ruffling (actin reorganization) in 3T3 fibroblasts; assay type: cell-based; settings: 3T3 cells, compound added 1 h before Rac activation
From the text: as §5, §3

[10] = system: 3T3 cells; test: Unidirectional cell migration (cell speed); assay type: cell-based
From the text: Percentages of cells with ruffles were quantified (right panel). Results shown are representative of 3 independent experiments. […] Left panel, representative records with arrows indicating the cell location at different times. Right panel, quantification of cell speed in each experimental conditions. Results shown are representative of 2 independent experiments. […] Lower panel, quantification of cell adhesion. Results shown are representative of 3 independent experiments.
Cells (1000/well) were seeded in a 96 well plate with […] fibronectin stripes (CytooPlates Motility, CYTOO) in medium with 1% SVF and allowed to spread for 4 hours before capturing time-lapse images for 24 hours (image/10 minutes) on a Widefield Leica DMI 6000B drove with Metamorph software. Cells speed was measured with ImageJ software.

[11] = Chronic IP injections: body weight, glycemia, hepatic and renal functions; assay type: in vivo, mice; settings: 25 mg/kg IP daily during 4 weeks
Procedure: FIGS. 6 to 8 relate to the effect of chronic IP injections of compound (2) on physiological parameters: body weight, glycemia, hepatic and renal functions.
as §4

Row | IC50 [1] [nM] | Relative activity (NSC23766) ([1]; compared with NSC23766) | IC50 ([2]; Homo sapiens, MCF7, 504 h) [nM] | Ruffles formation induced by RFP-Rac^V12 ([4]; 10 μM) | bioavailability [5] [%] | Compound | Focus diameter and focus numbers compared with control cells [2] | Decrease of cell invasion compared to control [3] [%] | Location of Rac^V12 at the plasma membrane [4] | Metastases [6] | Decrease of cell invasion compared to control [7] [%] | Cell adhesion [8] | Efficiency of Rac activator to induce ruffle / actin reorganization [9] | Efficiency of Rac activator to induce ruffle / actin reorganization ([9]; listed as A4.1) | Cell migration (cell speed) [10] | Side effects after chronic injection [11]
1 | 0.1 | > | – | – | – | COc1ccc(OC)c(NS(=O)(=O)c2ccc(NC(=O)CCCc3ccc(C)cc3)cc2)c1 [(3), N-(4-(N-(2,5-dimethoxyphenyl)sulfamoyl)phenyl)-4-(p-tolyl) Butanamide] | – | – | – | – | – | – | – | – | – | –
2 | – | – | 2.3 | prevented | 81.5 | COc1ccc(OC)c(NS(=O)(=O)c2ccc(NC(=O)CCSc3ccc(C)cc3)cc2)c1 [Compound (2), N-(4-(N-(2,5-dimethoxyphenyl)sulfamoyl)phenyl)-3-(p-tolylthio)propanamide] | smaller focus diameter as well as focus numbers | > 50 | limits the location of Rac^V12 at the plasma membrane | decreases significantly bone, hepatic, uterine and ovarian metastases | > 50 | decreases cell adhesion; also recorded: higher inhibition | strongly decreased | blocks Rac activator-induced actin reorganization | decreases cell migration; also recorded: higher inhibition | no major side effects
3 | – | – | – | – | – | CCN(CC)CCCC(C)Nc1nc(C)cc(Nc2ccc3nc(C)cc(N)c3c2)n1 (stereo not shown) [NSC23766, reference compound] | – | – | – | – | – | slow down | – | – | – | –
